In ChEMBL document CHEMBL4842358, “Design, synthesis and biological evaluation of sphingosine-1-phosphate receptor 2 antagonists as potent 5-FU-resistance reversal agents for the treatment of colorectal cancer” (Eur J Med Chem, 2021):
The source made the active and inactive calls. The rule behind the calls is not given here.

What was measured:
[1] = test system: HCT-116; experiment: Reversal of 5-FU resistance against human HCT-116 cells overexpressing DPD assessed as inhibition of cell proliferation measured after 72 hrs in presence of 5-FU by MTT assay; format: functional, cell-based; conditions: HCT-116, 72 h
[2] = target: T1, Sphingosine 1-phosphate receptor 2 (Homo sapiens, UniProt O95136); experiment: Binding affinity to S1PR2 (unknown origin) measured by surface plasmon resonance assay; conditions: filed as antagonist
T1 sequence (O95136 whole entry): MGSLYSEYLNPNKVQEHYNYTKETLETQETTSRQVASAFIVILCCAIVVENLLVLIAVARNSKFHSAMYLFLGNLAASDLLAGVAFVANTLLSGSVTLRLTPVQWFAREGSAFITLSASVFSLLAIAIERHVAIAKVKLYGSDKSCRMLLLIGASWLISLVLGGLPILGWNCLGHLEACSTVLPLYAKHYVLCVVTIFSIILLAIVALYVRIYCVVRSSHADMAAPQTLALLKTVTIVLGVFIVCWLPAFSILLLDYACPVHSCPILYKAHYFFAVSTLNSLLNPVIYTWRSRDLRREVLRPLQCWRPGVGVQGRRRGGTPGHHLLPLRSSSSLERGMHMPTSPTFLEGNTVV

[3] = target: T1, Sphingosine 1-phosphate receptor 2; experiment: Binding affinity to S1PR2 (unknown origin) assessed as association constant measured for 60 secs by surface plasmon resonance assay; conditions: filed as antagonist, time 60.0 sec
[4] = target: T1, Sphingosine 1-phosphate receptor 2; experiment: Antagonist activity at S1PR2 in human SW620/5-FU cells assessed as downregulation of DPD expression by western blot analysis; format: functional, cell-based; conditions: filed as antagonist
[5] = target: T1, Sphingosine 1-phosphate receptor 2; experiment: Binding affinity to S1PR2 (unknown origin) assessed as dissociation constant measured for 60 secs by surface plasmon resonance assay
[6] = test system: NCM460; experiment: Cytotoxicity against human NCM460 cells assessed as cell viability measured after 72 hrs in presence of 5-FU by MTT assay; format: cell-based; conditions: NCM460, 72 h
[7] = Reversal of 5-FU resistance against human SW620/5-FU cells assessed as inhibition of cell proliferation measured after 72 hrs in presence of 5-FU by MTT assay; format: functional, cell-based

Compound	EC50 [1] [µM]	K [2]	Ka [3]	inhibition [4]	Dissociation rate constant (koff) [5]	EC50 [6] [µM]	EC50 [7] [µM]
O=C(Nc1cc(Cl)nc(Cl)c1)Nc1cc2ccc(Br)cn2n1	5.26	2.02 10^-8M	8.31 10^7/M/s	Active	0.168 s⁻¹	8.94	11.7
O=C(Nc1cc(Cl)nc(Cl)c1)Nc1cc2ccccn2n1	5.13	1.46 10^-8M	7.93 10^6/M/s	Active	1.16 10^-1/s	10.2	2.49
Cn1ccc2c(-c3ccccc3)nc(NNC(=O)Nc3cc(Cl)nc(Cl)c3)nc21	660	2.61 10^-6M	5.21 10^4/M/s		1.36 10^-1/s	683	528
Cc1cc(NC(=O)Nc2cc(Cl)nc(Cl)c2)cc(C)n1	86.2	2.57 10^-8M	5.69 10^6/M/s		1.46 10^-1/s	576	234
O=C(NNc1nc(Nc2ccccc2)nc(N2CCCC2)n1)Nc1cc(Cl)nc(Cl)c1	23.2	1.86 10^-7M	7.15 10^5/M/s		1.33 10^-1/s	65.2	31.9
O=C(Nc1cc(Cl)nc(Cl)c1)Nc1cc2ccc(-c3ccccc3)cn2n1	5.13	4.38 10^-8M	4.59 10^6/M/s	Active	2.01 10^-1/s	8.05	9.25
CN(C)c1nc(NNC(=O)Nc2cc(Cl)nc(Cl)c2)nc2c1ccn2C	41.5	1.85 10^-6M	7.55 10^4/M/s		1.02 10^-1/s	58.5	48.2
CC(C)Oc1cc(NC(=O)Nc2cc(Cl)nc(Cl)c2)cc(Cl)n1	5.23	1.3 10^-7M	9.14 10^5/M/s	Active	1.19 10^-1/s	21.1	5.17
O=C(Nc1cc(Cl)nc(Cl)c1)Nc1cc(Cl)nc(OC2CCCC2)c1	5.12	3.99 10^-7M	4.49 10^5/M/s	Active	1.79 10^-1/s	21.4	6.15
O=C(Nc1ccnc(Cl)c1)Nc1cc(Cl)nc(Cl)c1	16.1	5.5 10^-6M	3.65 10^4/M/s		2.01 10^-1/s	55.3	31.2
O=C(NNc1nc(N2CCOCC2)c2ccn(C3CC3)c2n1)Nc1cc(Cl)nc(Cl)c1	449	2.17 10^-6M	6.12 10^4/M/s		1.33 10^-1/s	549	436
COc1c(Cl)cc(NC(=O)Nc2cc(Cl)nc(Cl)c2)cc1Cl	41.5	5 10^-8M	6.24 10^6/M/s	Active	3.12 10^-1/s	27.3	8.25
COc1ccc(-c2ccc3cc(NC(=O)Nc4cc(Cl)nc(Cl)c4)nn3c2)cc1	5.35	1.22 10^-8M	9.12 10^6/M/s	Active	1.12 10^-1/s	8.35	9.62
CN1CCN(C(=O)Nc2cc(Cl)nc(Cl)c2)CC1	142	5.35 10^-7M	1.98 10^5/M/s		1.06 10^-1/s	521	548
O=c1[nH]cc(F)c(=O)[nH]1 [FLUOROURACIL]	> 1000					43.3	> 1000
Cc1cc(NC(=O)Nc2cc(Cl)nc(Cl)c2)n(C)n1	94.2	3.3 10^-6M	5.36 10^4/M/s		1.77 10^-1/s	134	67.2
CNc1cc(C)nc(NNC(=O)Nc2cc(Cl)nc(Cl)c2)n1	23.4	4.24 10^-6M	5.56 10^4/M/s		2.36 10^-1/s	65.3	122
